Test results published in patent US20180353461A1, “USE OF CANNABINOIDS AS CERAMIDE-GENERATING ANTICANCER AGENTS IN TUMORS OF THE HEMATOPOIETIC AND LYMPHOID TISSUES” (priority 2014, published 2018).

Legend:
Format in all cases: cell-based, human
U266 cells [1] = assay: Western blot of ER-stress regulator proteins in U266 cells; conditions: U266, WIN-55 50 uM
Experimental: Samples (15-25 ug/lane) were subjected to SDS/PAGE in pre-cast polyacrylamide gels AnykD (Bio-Rad Laboratories, Hercules, CA, USA) under reducing and denaturing conditions. Electrophoretic run was performed at a constant current of 15 mA per gel in a Mini-Protean® Tetra Cell (Bio-Rad Laboratories). Once proteins were separated by electrophoresis, were transferred onto PVDF membranes using Trans-Blot® Turbo™ System (Bio-Rad Laboratories). Electrotransference was conducted at constant amperage of 1.2 mA and at up to 25 V of voltage. The blotted membranes were then blocked with 2% bovine serum albumin [(BSA), Santa Cruz Biotechnology] in Tween-Tris buffer saline (TTBS) for 30 min with gentle agitation, and incubated overnight at 4° C. with corresponding primary antibody in TTBS. After twice washing with TTBS, membranes were incubated for 1-2 h at room temperature with suitable conjugated-HRP secondary antibody, and subjected to chemiluminescence detection using Western Blotting Luminol Reagent (Santa Cruz Biotechnology). Loading controls were carried out with an anti-beta-actin and anti-beta-tubulin antibodies (Sigma-Aldrich). […]
Cannabinoids attenuate the response to ER-stress in myelomatous cells. […] To test the effect of cannabinoids on ER-stress we analyzed the expression profile of ER-stress related proteins in myelomatous cells.

U266 cells [2] = assay: SPT expression, ceramide staining and SPT inhibition in U266 cells
Experimental: Except if otherwise indicated, for the viability assays primary cells were incubated 18 hours, with vehicle (with <0.15% DMSO) or cannabinoid. Meanwhile, the time course assays cells were performed at 0, 2, 6, 18 and 24 h. For the analysis of SPT activity, cells were co-incubated for the first 6 hours with the SPT inhibitor, myriocin, and the cannabinoid, WIN-55 or JWH-133.
Samples (15-25 ug/lane) were subjected to SDS/PAGE in pre-cast polyacrylamide gels AnykD (Bio-Rad Laboratories, Hercules, CA, USA) under reducing and denaturing conditions. Electrophoretic run was performed at a constant current of 15 mA per gel in a Mini-Protean® Tetra Cell (Bio-Rad Laboratories). Once proteins were separated by electrophoresis, were transferred onto PVDF membranes using Trans-Blot® Turbo™ System (Bio-Rad Laboratories). Electrotransference was conducted at constant amperage of 1.2 mA and at up to 25 V of voltage. The blotted membranes were then blocked with 2% bovine serum albumin [(BSA), Santa Cruz Biotechnology] in Tween-Tris buffer saline (TTBS) for 30 min with gentle agitation, and incubated overnight at 4° C. with corresponding primary antibody in TTBS. After twice washing with TTBS, membranes were incubated for 1-2 h at room temperature with suitable conjugated-HRP secondary antibody, and subjected to chemiluminescence detection using Western Blotting Luminol Reagent (Santa Cruz Biotechnology). Loading controls were carried out with an anti-beta-actin and anti-beta-tubulin antibodies (Sigma-Aldrich). Blots were captured using a digital imaging system ImageQuant LAS 4000 (Amersham GE Healthcare) and transferred to a digital image processing software to analyze (Adobe Photoshop CS2, version 9.0., Adobe Systems Inc., San Jose, Calif.).
After cannabinoids and/or antagonists or SPT inhibitor treatment, primary cells and cell lines were washed with PBS, collected and placed on slides (Menzel-Glaser, Thermo Fisher Scientific). Cells were fixed in cold 4% paraformaldehyde for 10 min, treated with sodium borohydride and, permeabilized in 0.02% Triton X-100 in PBS with 10% normal donkey serum for blocking. Then, cells were incubated with the anti-CB1 or anti-CB2 receptor antibodies, anti-active-caspase3, anti-ceramide in blocking buffer overnight at 4° C. in a humid chamber (Simport, Beloeil, QC, Canada). After washing with PBS, samples were further incubated for 90 min with Alexa 647- or Alexa 488—conjugated donkey secondary antibody. After twice washing, first with PBS and then with 50 mM Tris-HCl (pH 7.4), and were dipped in a solution of Sudan Black B (Sigma-Aldrich) in 70% methanol for 5 min. After immunocytochemistry, slides were mounted using Fluoromount Aqueous Mounting Medium (Sigma-Aldrich). Preparations were examined with an Olympus BX-61 microscope (Olympus, Hamburg, Germany) equipped with appropriate filters: FITC/Cy2 (green fluorophores) 460-490 nm bandpass excitation filter and 510-550 nm bandpass emission filter; rhodamine/Cy3 (red fluorophores) 541-551 nm excitation and 572-607 nm emission; and Cy5 (deep red fluorophore) 615-635 nm excitation and 655 nm longpass emission. Digital images were acquired with CellSens Dimension Software (Olympus) and contrasted with Photoshop CS2 Software (Adobe Systems Inc). […]
De novo synthesis of ceramides contribute to the apoptotic process triggered by cannabinoids. […] To this end, we analyzed the expression of serine palmitoyltransferase (SPT), the enzyme that catalyses the rate-limiting step of ceramide synthesis de novo. […]

HL60 cells [3] = assay: SPT expression, ceramide staining and SPT inhibition in HL60 cells
Experimental: (§1) Extracted proteins (15-25 ug/well) were separated by sodium dodecyl sulfate-polyacrylamide gel electrophoresis (SDS/PAGE) in pre-cast polyacrylamide gels AnykD (Bio-Rad Laboratories, Hercules, Calif., USA) under reducing and denaturing conditions. Electrophoretic run was performed at a constant current of 15 mA per gel in a Mini-Protean® Tetra Cell (Bio-Rad Laboratories) and were electrophoretically transferred onto PVDF membranes using Trans-Blot® Turbo™ System (Bio-Rad Laboratories). Blocking was performed with 2% bovine serum albumin [(BSA), Santa Cruz Biotechnology] in Tween-Tris buffer saline (TTBS). Membranes were incubated overnight at 4° C. with corresponding primary antibody in TTBS.
Cells were grown on glass cover slips (Menzel-Glaser, Thermo Fisher Scientific) in the presence or absence of WIN 55,212-2. The cover slips were then washed twice in phosphate-buffered saline (PBS), and the cells were fixed in cold 4% paraformaldehyde for 10 min, treated with sodium borohydride and, permeabilized in 0.02% Triton X-100 in PBS with 10% normal donkey serum for blocking. Cell nuclei were stained with diamidino-2-phenylindole [(DAPI), Pierce, Thermo Fisher Scientific)]. Then, cells were incubated with the anti-CB1 or anti-CB2 receptor antibodies or anti-ceramide in blocking buffer overnight at 4° C. in a humid chamber (Simport, Beloeil, QC, Canada). After washing with PBS, samples were further incubated for 90 min with Alexa 647- or Alexa 488-conjugated donkey secondary antibody.
After final washing in PBS, the cover slips were dried and mounted on slides using Fluoromount Aqueous Mounting Medium (Sigma-Aldrich). Changes in the protein expression were visualized by fluorescence microscopy using a specific excitation for each antibody. Digital images were acquired with CellSens Dimension Software (Olympus) and manipulated with Photoshop CS2 Software (Adobe Systems Inc). There was no labeling when the primary antibody was omitted (data not shown).
Additionally, de novo synthesis of ceramides also contribute to the apoptotic process triggered by cannabinoids in AML. We examined whether ceramides participate in the cannabinoid-induced apoptosis in leukemic cells. To this end, we analyzed the expression of serine palmitoyltransferase (SPT), the enzyme that catalyses the rate-limiting step of ceramide synthesis de novo. […] To ensure that this up-regulation of SPT entails an increased of ceramide synthesis, we examined the expression of ceramide by immunohistochemistry. […] Furthermore, to strengthen the engagement of the ceramide in cannabinoid-induced apoptosis, we analyzed the cannabinoid-induce apoptosis after inhibition of ceramide synthesis with Myoricin, a selective SPT inhibitor.

HL60 cells [4] = assay: Western blot of ER-stress regulator proteins in HL60 cells; conditions: HL60, WIN-55 50 uM
Experimental: FIG. 19. […] Expression analysis by Western blot of regulator proteins of ER-stress in HL60 cells treated with WIN-55 50 uM.
as §1

CS(=O)(=O)O.Cc1c(C(=O)c2cccc3ccccc23)c2cccc3c2n1[C@H](CN1CCOCC1)CO3 [WIN-55, (R)-(+)-[2,3-dihydro-5-methyl-3-(4-morpholinylmethyl)-pyrrolo-[1,2,3]-1,4-benzoxazin-6-yl]-1-naphthalenylmethanone mesylate]
response to ER-stress: expression of CHOP, ATF-4, p-IRE1 (U266 cells [1]): attenuates the response to ER-stress | SPT, 2 h after exposure (U266 cells [2]; U266): moderate increase | time at which SPT reached the maximal level (U266 cells [2]; U266): 18 h | ceramide by immunohistochemistry, compared to untreated cells (U266 cells [2]; U266, 50 uM, 18 hours): remarkable increase | SPT expression level in myelomatous cells (U266 cells [2]; U266, WIN-55 50 uM): enhanced | SPT expression level in leukemic cells (HL60 cells [3]; HL60): enhanced | SPT, 2 h after exposure (HL60 cells [3]; HL60): moderate increase | ceramide by immunohistochemistry, compared to untreated cells (HL60 cells [3]; HL60, 50 uM, 18 hours): remarkable increase | ER-stress in AML cells (HL60 cells [4]): increase the ER-stress
